Reference: the NIST ThermoML archive (doi:10.1016/j.jct.2013.08.012)
Numbers after ± are expanded uncertainties.

Assay: molar enthalpy of vaporization or sublimation
Details: 298.15 K; Crystal; Static calorimetry

molar enthalpy [kcal/mol] | SMILES
18.8 ± 0.406 | O=C1Cc2ccccc2O1 [2-coumaranone]
20.5 ± 0.406 | O=C1COc2ccccc21 [3-coumaranone]
